Test system: E. Histolytica
Test: Oral activity against experimental cecal E. Histolytica infections in rats
Type: in vivo, male Royal Hart rats
Details: for A.D.I. (average degree of infection): scale 0 to 4, controls averaged 2.2
Excerpt: Table VII and Table VIII set forth in vivo test results which illustrate the antiprotozoal activity of Antibiotic G-418. The host for the tests were recently weaned male Royal Hart rats (3-4 weeks old) weighing about 50-70 g. The test procedure is a modification of one described by R. J. Schnitzer on pages 355-443 in Experimental Chemotherapy, Vol. 1, Academic Press, New York (1963).
*A.D.I. -- defined as the average degree of infection based upon gross
observations of pathological changes in the cecum and microscopic
observations of the number of amoebae found. These observations are
recorded on a scale of from zero to four, zero representing a
substantially normal cecum. Untreated but infected controls range from
about two to four. In the data set forth the controls averaged 2.2.

With `NC[C@@H]1O[C@H](O[C@H]2[C@@H](O)[C@H](O[C@@H]3[C@@H](O)[C@H](N)C[C@H](N)[C@H]3O[C@H]3O[C@H](CO)[C@@H](O)[C@H](O)[C@H]3N)O[C@@H]2CO)[C@H](N)[C@@H](O)[C@@H]1O` [Paromomycin] the “Parasitological Cure Negative/Total” value (oral 3.5 mg/kg/day, 3 days) was 1/7, the “A.D.I. (average degree of infection)” value (oral 3.5 mg/kg/day, 3 days) was 1.9 and the “Parasitological Cure Negative/Total” value (oral 3.5 mg/kg/day, 6 days) was 1/6. For the same molecule, the “A.D.I. (average degree of infection)” value (oral 3.5 mg/kg/day, 6 days) was 1.5, the “Parasitological Cure Negative/Total” value (oral 6.5 mg/kg/day, 1 day) was 0/4 and the “A.D.I. (average degree of infection)” value (oral 6.5 mg/kg/day, 1 day) was 1.0. For the same molecule, the “Parasitological Cure Negative/Total” value (oral 6.5 mg/kg/day, 3 days) was 1/5, the “A.D.I. (average degree of infection)” value (oral 6.5 mg/kg/day, 3 days) was 1.0 and the “Parasitological Cure Negative/Total” value (oral 6.5 mg/kg/day, 6 days) was 2/4. The “A.D.I. (average degree of infection)” value (oral 6.5 mg/kg/day, 6 days) was 1.3, the “Parasitological Cure Negative/Total” value (oral 10 mg/kg/day, 1 day) was 0/7 and the “A.D.I. (average degree of infection)” value (oral 10 mg/kg/day, 1 day) was 2.1. For the same molecule, the “Parasitological Cure Negative/Total” value (oral 10 mg/kg/day, 3 days) was 2/6, the “A.D.I. (average degree of infection)” value (oral 10 mg/kg/day, 3 days) was 1.0 and the “Parasitological Cure Negative/Total” value (oral 12 mg/kg/day, 6 days) was 4/8. For the same molecule, the “A.D.I. (average degree of infection)” value (oral 12 mg/kg/day, 6 days) was 0.8, the “Parasitological Cure Negative/Total” value (oral 25 mg/kg/day, 6 days) was 6/7 and the “A.D.I. (average degree of infection)” value (oral 25 mg/kg/day, 6 days) was 0.
